Read-outs that look alike come from different tables or passages of the source.
What was measured:
Recombinant human AKR1C3 = Recombinant human AKR1C3 (Homo sapiens, UniProt P42330); experiment: Activation by the aldoketo reductase AKR1C3; format: biochemical; settings: 5 µM, 2 mM NADPH, 37 °C, up to 120 min; FIG. 2
Procedure: Recombinant human AKR1C3 was diluted to 25 µg/mL in phosphate buffered saline (PBS), pH 7.4 (37 °C), containing 2 mM NADPH. TH2870 or progesterone (positive control) in 30% methanol/70% water was added to the reaction mixture at a final concentration of 5 µM and incubated at 37 °C for 120 minutes. At various times up to 120 min, 50 µL of the reaction mixture was taken and 200 µL acetonitrile containing propranolol as internal standard was added, vortex-mixed and centrifuged for 10 min. The resulting supernatant (5 µL) was injected into a LC/MS/MS for quantitation of % remaining TH 2870 and progesterone. The compounds were tested in duplicates.

LIXC012 = experiment: In vitro human tumor cell line cytotoxicity assay; format: cell-based; settings: for IC50: Homo sapiens
SNU-387 = experiment: In vitro human tumor cell line cytotoxicity assay; format: cell-based; settings: for IC50: Homo sapiens
C3A = experiment: In vitro human tumor cell line cytotoxicity assay; format: cell-based; settings: for IC50: Homo sapiens
HepG2 = experiment: In vitro human tumor cell line cytotoxicity assay; format: cell-based; settings: for IC50: Homo sapiens
[1] = Pharmacokinetics (TK) after 30-min IV infusion in monkeys; format: in vivo, Cynomolgus monkeys; settings: 2 mg/kg 30-min IV infusion; for MRT inf / clearance / half-life / Vd / concentration at 0.25 hr / concentration at 0.5 hr / concentration at 0.75 hr / concentration at 1 hr / concentration at 2 hr: cynomolgus monkey, plasma; for half-life: read-out: Terminal t1/2 (converted); for Vd: read-out: Vss
Procedure: (§1) TH 3423 and TH 3424 were tested in no naive monkeys (1 male and one female for each compound at 2 mg/kg) with 30-min intravenous infusion, TK sampling: on Day 1 and Day 15: 0.25, 0.5, 0.75, 1 and 2 hr post infusion initiation. Serum chemistry and hematology: pre-dose (Day 1), day 5, day 8 (pre-dose), day 15 (pre-dose), day 22 and day 28. Clinical observation: Daily during the study, total 35 days. Food consumption: Daily during the study, total 35 days. Bodyweight measurement: Twice weekly for five weeks.

PLCPRF5 = experiment: In vitro human tumor cell line cytotoxicity assay; format: cell-based; settings: for IC50: Homo sapiens
Vcap = experiment: In vitro human tumor cell line cytotoxicity assay; format: cell-based; settings: for IC50: Homo sapiens, VCaP
H460 cells = experiment: In vitro proliferation assay, H460; format: cell-based; settings: Homo sapiens, NCI-H460; 2 hrs exposure, wash, additional 70hrs, AlamarBlue; read-out: IC 50 in proliferation assay in H460 cells
Procedure: In vitro proliferation data on the H460 […] human tumor cell line is reported above in the compound table. IC50 values are reported in micromolar and result from exposure of compound at various concentrations for 2 hrs followed by a wash step and addition of fresh media followed by growth and cell viability staining and comparison to a media only treated control.
Specifically, exponentially growing cells were seeded at a density of 4 x 10^3 cells per well in a 96 well plate and incubated at 37°C in 5% CO2, 95% air and 100% relative humidity for 24 hours prior to addition of test compounds. Compounds were solubilized in 100% DMSO at 200 times the desired final test concentration. At the time of drug addition, compounds were further diluted to 4 times the desired final concentration with complete medium. Aliquots of 50 µl of compound at specified concentrations were added to microtiter wells already containing 150 µl of medium, resulting in the final drug concentration reported. After drug addition, the plates were incubated for an additional 2 hours at 37°C, 5% CO2, 95% air, and 100% relative humidity, then the drug was washed off and fresh medium was added and the plates were incubated for addition 70hrs at 37 °C, 5% CO2, 95% air and 100% relative humidity. At the end of this incubation, the viable cells were quantified using the AlamarBlue assay. The drug concentration resulting in growth inhibition of 50% (IC50) was calculated using Prism software (Irvine, CA), and the results were listed in the table.

[2] = Acute toxicity study in monkeys, body weight; format: in vivo, Cynomolgus monkeys; set-up: unit not given here; settings: 2 mg/kg IV infusion
Procedure: as §1

HCCC9810 = experiment: In vitro human tumor cell line cytotoxicity assay; format: cell-based; settings: for IC50: Homo sapiens
[3] = both sexes, mean, read-out: Plasma concentration, Mean
[4] = female, read-out: Plasma concentration
[5] = male, read-out: Plasma concentration

Sequence of Recombinant human AKR1C3 (P42330 whole entry): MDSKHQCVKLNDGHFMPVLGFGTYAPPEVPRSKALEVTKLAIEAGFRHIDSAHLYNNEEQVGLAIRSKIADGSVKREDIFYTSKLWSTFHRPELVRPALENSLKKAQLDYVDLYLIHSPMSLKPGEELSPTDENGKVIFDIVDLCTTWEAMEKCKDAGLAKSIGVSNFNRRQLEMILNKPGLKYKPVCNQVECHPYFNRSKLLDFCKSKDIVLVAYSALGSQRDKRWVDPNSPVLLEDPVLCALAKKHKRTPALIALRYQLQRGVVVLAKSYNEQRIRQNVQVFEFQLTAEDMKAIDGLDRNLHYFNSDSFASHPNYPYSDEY

CC(=O)[C@H]1CC[C@H]2[C@@H]3CCC4=CC(=O)CC[C@]4(C)[C@H]3CC[C@]12C [Progesterone, reference compound]
disappearance of compound (% remaining) in the presence of AKR1C3 (Recombinant human AKR1C3): reduced slowly

C[C@@H](OP(=O)(N1CC1)N1CC1)c1ccc([N+](=O)[O-])c(Oc2cccc(C(=O)N(C)C)c2)c1 (single isomer, unassigned) [TH3423]
Max Inhibition% (LIXC012): 84.8% | Min Inhibition% (LIXC012): -1.1% | IC50 (LIXC012; read-out: AbsIC50): 16.9 nM | IC50 (LIXC012; read-out: RelIC50): 8.1 nM | Max Inhibition% (SNU-387): 99.8% | Min Inhibition% (SNU-387): 1.3% | IC50 (SNU-387; read-out: AbsIC50): 39.7 nM | IC50 (SNU-387; read-out: RelIC50): 46.3 nM | Max Inhibition% (C3A): 98.5% | Min Inhibition% (C3A): 5.4% | IC50 (C3A; read-out: AbsIC50): 11.7 nM | IC50 (C3A; read-out: RelIC50): 9.6 nM | Max Inhibition% (HepG2): 99.5% | Min Inhibition% (HepG2): -7.2% | IC50 (HepG2; read-out: AbsIC50): 18.7 nM | IC50 (HepG2; read-out: RelIC50): 13.1 nM | AUCINF ([1]; Mean): 770 hr^∗ng/mL | AUClast ([1]; Mean): 766 hr^∗ng/mL | MRT inf ([1]; both sexes, Mean): 12.2 min | clearance ([1]; both sexes, Mean): 43.3 mL/min/kg | half-life ([1]; both sexes, Mean): 7.74 min | Vd ([1]; both sexes, Mean): 0.527 L/kg | concentration at 0.25 hr [1, 3]: 1210 ng/mL | concentration at 0.5 hr [1, 3]: 1400 ng/mL | concentration at 0.75 hr [1, 3]: 336 ng/mL | concentration at 1 hr [1, 3]: 70 ng/mL | concentration at 2 hr ([1]; both sexes, mean, 2 hr, read-out: Plasma concentration, Mean): 1.03 ng/mL | concentration at 0.25 hr [1, 4]: 1320 ng/mL | concentration at 0.5 hr [1, 4]: 1370 ng/mL | concentration at 0.75 hr [1, 4]: 313 ng/mL | concentration at 1 hr [1, 4]: 55 ng/mL | MRT inf ([1]; female): 10.8 min | clearance ([1]; female): 43.5 mL/min/kg | half-life ([1]; female): 6.48 min | Vd ([1]; female): 0.469 L/kg | concentration at 0.25 hr [1, 5]: 1100 ng/mL | concentration at 0.5 hr [1, 5]: 1420 ng/mL | concentration at 0.75 hr [1, 5]: 359 ng/mL | concentration at 1 hr [1, 5]: 85 ng/mL | concentration at 2 hr ([1]; male, 2 hr, read-out: Plasma concentration): 1.03 ng/mL | MRT inf ([1]; male): 13.6 min | clearance ([1]; male): 43.2 mL/min/kg | half-life ([1]; male): 9 min | Vd ([1]; male): 0.584 L/kg | Plasma concentration ([1]; female, 2 hr): BQL | AUCINF ([1]; female): 766 hr^∗ng/mL | AUClast ([1]; female): 758 hr^∗ng/mL | AUCINF ([1]; male): 774 hr^∗ng/mL | AUClast ([1]; male): 773 hr^∗ng/mL | Max Inhibition% (PLCPRF5): 77.7% | Min Inhibition% (PLCPRF5): -4.9% | IC50 (PLCPRF5; PLC-PRF-5, read-out: AbsIC50): 207 nM | IC50 (PLCPRF5; PLC-PRF-5, read-out: RelIC50): 156 nM | IC50 (Vcap; read-out: AbsIC50): 21.6 nM | IC50 (Vcap; read-out: RelIC50): 26.6 nM | Max Inhibition% (Vcap; Vcap): 101.0% | Min Inhibition% (Vcap; Vcap): 1.1% | IC50 (H460 cells): 5 nM | body weight ([2]; Mean, Day 1): 3.50 | body weight ([2]; Mean, Day 4): 3.39 | body weight ([2]; Mean, Day 8): 3.32 | body weight ([2]; Mean, Day 11): 2.96 | body weight ([2]; female, Day 1): 3.65 | body weight ([2]; female, Day 4): 3.55 | body weight ([2]; female, Day 8): 3.41 | body weight ([2]; female, Day 11): 2.96 | body weight ([2]; male, Day 1): 3.35 | body weight ([2]; male, Day 4): 3.23 | body weight ([2]; male, Day 8): 3.23 | body weight ([2]; male, Day 11): 2.95 | Max Inhibition% (HCCC9810): 93.7% | Min Inhibition% (HCCC9810): 0.0% | IC50 (HCCC9810; read-out: AbsIC50): 18.7 nM | IC50 (HCCC9810; read-out: RelIC50): 16.8 nM
